Read-outs that look alike come from different tables or passages of the source.
Columns and labels:
in vivo = conditions: rat, po
Vascular permeability [1] = experiment: Vascular permeability in rat (Whittle's method); assay type: in vivo, rat (Wistar strain, male); conditions: for ED30: po
Procedure: (ii) Vascular permeability in rat (Whittle's method)
The test compound was orally administered to each Wistar strain male rat (weighing about 150 g) which had been fasted overnight. After 55 minutes, 0.5 ml of a 0.5% Evans Blue solution was intravenously injected. Five minutes thereafter, 0.2 ml/100 g of a 3%(V/V) acetic acid solution was intraperitoneally injected. After 60 minutes from the injection of the acetic acid solution, the rats were killed by suffocation with chloroform. After immediate laparotomy, the dye leaked into the peritoneal cavity was washed out with physiological saline. The washings were made up with the saline to 30 ml and the absorbance at 640 mμ was measured to examine the effect of the test compounds by comparing the amounts of leaked dye per rat with one another.

[2] = system: Phenol Red (PSP) excretion; experiment: Uricosuric action (a), inhibition of Phenol Red (PSP) excretion; assay type: in vivo, rabbit (male)
Procedure: (a) The action was examined by the method of B. B. Brodie et al. who reported that the inhibitory action on Phenol Red (PSP) excretion correlates with the uricosuric action [Proc. Soc. Exp. Biol. Med., 86, 884 (1954)]. To a male rabbit weighing 2 to 3 kg was intraperitoneally administered the test compound. After 30 minutes, 75 mg/kg of a Phenol Red suspension was injected into the pinna vein of the rabbit and 30 minutes thereafter a blood sample was drawn from the pinna vein. The blood sample was centrifuged and the serum was diluted with physiological saline. The diluted serum was treated with 0.1 N NaOH to develop the color. The concentration of Phenol Red in the serum was determined from the absorbance at 560 mμ.

[3] = system: fever (Mycobacterium butyricum); experiment: Antipyretic action; assay type: in vivo, rat (Wistar strain, female); conditions: for ED1.0: po
Procedure: A suspension (0.6 mg/0.1 ml) of killed and dried Mycobacterium butyricum in liquid paraffin was subcutaneously injected in an amount of 0.1 ml into the subplantar region of the hind paw of each Wistar strain female rat weighing about 180 g. After 14 hours, the fevered rats were divided into groups, and each test compound was orally administered to each group to examine the antipyretic effect.

Adjuvant arthritis = experiment: Adjuvant arthritis; assay type: in vivo, rat (Sprague-Dawley strain, male); conditions: 1 mg/kg p.o./day, mean during one week
Procedure: A suspension containing 6 mg/ml of killed and dried Mycobacterium butyricum in liquid paraffin was subcutaneously injected into the subplantar region of the left hind paw of Sprague-Dawley strain male rats (weighing 180 to 200 g) in a proportion of 0.1 ml/rat. After 14 days, the rats having inflammatory paws of similar volumes were selected and the test compound was orally administered to the rats repeatedly at the rate shown in Table 4 during one week and the mean inhibitory percent of swelling during one week was determined.

[4] = system: Carrageenin-induced edema; experiment: Carrageenin-induced edema; assay type: in vivo, rat (Donryu strain, male); conditions: Rattus norvegicus, po, read-out: Inhibitory percent of swelling
Procedure: (iii) Carrageenin-induced edema
Each of the 6 Donryu strain male rats per group (each weighing about 140 g), which had been fasted overnight, was orally loaded with 4 ml of water and, after 30 minutes, the test compound was orally administered thereto. Thirty minutes thereafter, a 1%(Wt/V) solution of carrageenin in physiological saline was subcutaneously injected into the subplantar region of the left hind paw. At a time interval of one hour, starting from the end of the first hour till the end of the fifth hour after injection of carrageenin, the paw volume was measured by means of a manometer and pressure transducer. By comparison with the percent increase in swelling of the control group of rats to which a 0.5%(V/V) solution of Tween 80 had been administered, the mean inhibitory percent in 5 hours of swelling was calculated by the following equation: [formula]

[5] = system: threshold value of pain due to pressure stimuli (tail); conditions: for Analgesic effect: 100% = threshold raised by 160 g; for ED50: Mus musculus, po
Vascular permeability [6] = experiment: Vascular permeability in mice (Whittle's method); assay type: in vivo, mouse (ddY strain, male); conditions: for Inhibition: dye leakage; for ED30: po
Procedure: (i) Vascular permeability in mice (Whittle's method)
The test compound was orally administered to each ddY strain male mouse (weighing each about 20 g). After 20 minutes, 0.1 ml/10 g of a 4%(Wt/V) solution of Pontamine Sky Blue in physiological saline was intravenously injected and 10 minutes thereafter 0.1 ml/10 g of a 0.7%(V/V) solution of acetic acid in physiological saline was injected intraperitoneally. After 30 minutes, the mice were killed by suffocation with chloroform. After immediate laparotomy, the dye leaked into the peritoneal cavity was washed out with distilled water. The washings were made up with water to 30 ml and the absorbance at 620 mμ was measured. The amount of leaked dye per 20 g of mouse weight was compared.

[7] = system: phenylbenzoquinone writhing; experiment: Analgesic activity, phenylbenzoquinone method in mouse; assay type: in vivo, mouse (ddY strain, male); conditions: for Frequency of writhing, mean ± S.E.: during 10 minutes; for inhibition in vivo at 5 mg/kg / inhibition in vivo at 10 mg/kg / inhibition in vivo at 20 mg/kg / ED50: po; for inhibition in vivo at 5 mg/kg / inhibition in vivo at 10 mg/kg / inhibition in vivo at 20 mg/kg: 10 min, read-out: Inhibition
Procedure: (i) Phenylbenzoquinone method in mouse
The test compound was orally administered to each ddY strain male mouse (weighing 22±2 g; 8 mice per group). […] The frequency of writhing during 10 minutes from 5-minutes after the injection of phenylbenzoquinone was measured and compared with that of a control group to which a 0.5% Tween 80 solution was administered. The percent inhibition was calculated by the following equation: [formula]

[8] = system: pain threshold (brewer's yeast, hind paw); experiment: Analgesic activity, Randall-Selitto method in rat; assay type: in vivo, rat (Wistar strain, male); conditions: for Inhibition: 100% = pain threshold raised by 150 g; for ED50: po
Procedure: (ii) Randall-Selitto method in rat
After one hour, the test compound was orally administered. One hour thereafter, the pain threshold value was measured four times at a time interval of one hour. The mean value of four values obtained was taken as the pain threshold value of each group of rats. The activity of the drug was assumed to be 100% when the pain threshold value was raised by 150 g.

[9] = Mus musculus, writhing, 5 mg/kg p.o.
[10] = Mus musculus, writhing, 10 mg/kg p.o.
[11] = Mus musculus, writhing, 20 mg/kg p.o.

## Cc1ccsc1-c1ccc(C(C)C(=O)O)cc1 (racemic) [Racemic compound, dl-2-[4-(3-methyl-2-thienyl)phenyl]propionic acid]
In vivo
  LD50: 248 mg/kg
Vascular permeability [1]; 0.5 mg/kg p.o.
  Inhibition: 20.1%
Vascular permeability [1]; 1 mg/kg p.o.
  Inhibition: 27.6%
Vascular permeability [1]; 5 mg/kg p.o.
  Inhibition: 50.1%
Vascular permeability [1]; rat, read-out: ED30
  ED30: 1.1 mg/kg
[2]; 10 mg/kg i.p.
  Concentration of PSP in serum, mean ± S.E.: 166.7 ± 25.1 µg/mL
[2]; 20 mg/kg i.p.
  Concentration of PSP in serum, mean ± S.E.: 249.3 ± 41.4 µg/mL
[3]; 0.2 mg/kg p.o.
  Mean decrease in temp.: 0.52 °C
[3]; 1 mg/kg p.o.
  Mean decrease in temp.: 1.20 °C
[3]; 5 mg/kg p.o.
  Mean decrease in temp.: 1.70 °C
[3]; rat, read-out: ED1.0
  ED1.0: 0.66 mg/kg
Adjuvant arthritis
  Inhibitory percent of swelling: 14.4%
[4]; 1 mg/kg p.o., mean in 5 hours
  inhibition in vivo at 1 mg/kg: 21.2%
[4]; 5 mg/kg p.o., mean in 5 hours
  inhibition in vivo at 5 mg/kg: 48.5%
[5]; 2.5 mg/kg p.o.
  Analgesic effect: 33%
[5]; 10 mg/kg p.o.
  Analgesic effect: 50%
[5]; 40 mg/kg p.o.
  Analgesic effect: 85%
[5]
  ED50: 7 mg/kg
Vascular permeability [6]; 5 mg/kg p.o.
  Dye leakage (P.S.B.) mean ± S.E.: 262.0 ± 21.1 μg/20g
  Inhibition: 18.3%
Vascular permeability [6]; 10 mg/kg p.o.
  Dye leakage (P.S.B.) mean ± S.E.: 211.0 ± 26.0 μg/20g
  Inhibition: 34.2%
Vascular permeability [6]; 20 mg/kg p.o.
  Dye leakage (P.S.B.) mean ± S.E.: 166.8 ± 13.8 μg/20g
  Inhibition: 48.0%
Vascular permeability [6]; mouse, read-out: ED30
  ED30: 8.5 mg/kg
[7]; 5 mg/kg p.o.
  Frequency of writhing, mean ± S.E.: 18.6 ± 4.5
[7]; 10 mg/kg p.o.
  Frequency of writhing, mean ± S.E.: 11.8 ± 2.4
[7]; 20 mg/kg p.o.
  Frequency of writhing, mean ± S.E.: 3.3 ± 0.9
[7]; [9]
  inhibition in vivo at 5 mg/kg: 21.2%
[7]; [10]
  inhibition in vivo at 10 mg/kg: 50%
[7]; [11]
  inhibition in vivo at 20 mg/kg: 86%
[7]; mouse, read-out: ED50
  ED50: 9.7 mg/kg
[8]; 1 mg/kg p.o.
  Inhibition: 44.3%
[8]; 5 mg/kg p.o.
  Inhibition: 45.2%
[8]; 25 mg/kg p.o.
  Inhibition: 66.9%
[8]; rat, read-out: ED50
  ED50: 6.1 mg/kg

## Cc1ccsc1-c1ccc(C(C)C(=O)O)cc1 (single isomer, unassigned; isomer d) [d-Isomer, d-2-[4-(3-methyl-2-thienyl)phenyl]propionic acid]
In vivo
  LD50: 230 mg/kg
Vascular permeability [1]; 0.2 mg/kg p.o.
  Inhibition: 14.2%
Vascular permeability [1]; 0.5 mg/kg p.o.
  Inhibition: 28.1%
Vascular permeability [1]; 1 mg/kg p.o.
  Inhibition: 43.3%
Vascular permeability [1]; rat, read-out: ED30
  ED30: 0.52 mg/kg
[2]; 10 mg/kg i.p.
  Concentration of PSP in serum, mean ± S.E.: 223.8 ± 3.9 µg/mL
[2]; 20 mg/kg i.p.
  Concentration of PSP in serum, mean ± S.E.: 267.3 ± 18.0 µg/mL
[3]; 0.2 mg/kg p.o.
  Mean decrease in temp.: 0.82 °C
[3]; 1 mg/kg p.o.
  Mean decrease in temp.: 1.18 °C
[3]; 5 mg/kg p.o.
  Mean decrease in temp.: 1.63 °C
[3]; rat, read-out: ED1.0
  ED1.0: 0.44 mg/kg
Adjuvant arthritis
  Inhibitory percent of swelling: 21.6%
[4]; 1 mg/kg p.o., mean in 5 hours
  inhibition in vivo at 1 mg/kg: 40%
[4]; 5 mg/kg p.o., mean in 5 hours
  inhibition in vivo at 5 mg/kg: 57.2%
[5]; 2.5 mg/kg p.o.
  Analgesic effect: 38%
[5]; 10 mg/kg p.o.
  Analgesic effect: 61%
[5]; 40 mg/kg p.o.
  Analgesic effect: 80%
[5]
  ED50: 5.2 mg/kg
Vascular permeability [6]; 5 mg/kg p.o.
  Dye leakage (P.S.B.) mean ± S.E.: 256.4 ± 15.9 μg/20g
  Inhibition: 20.1%
Vascular permeability [6]; 10 mg/kg p.o.
  Dye leakage (P.S.B.) mean ± S.E.: 218.0 ± 14.3 μg/20g
  Inhibition: 32.0%
Vascular permeability [6]; 20 mg/kg p.o.
  Dye leakage (P.S.B.) mean ± S.E.: 160.4 ± 10.3 μg/20g
  Inhibition: 50.0%
Vascular permeability [6]; mouse, read-out: ED30
  ED30: 8.6 mg/kg
[7]; 5 mg/kg p.o.
  Frequency of writhing, mean ± S.E.: 14.5 ± 3.5
[7]; 10 mg/kg p.o.
  Frequency of writhing, mean ± S.E.: 9.9 ± 2.6
[7]; 20 mg/kg p.o.
  Frequency of writhing, mean ± S.E.: 5.4 ± 1.0
[7]; [9]
  inhibition in vivo at 5 mg/kg: 38.6%
[7]; [10]
  inhibition in vivo at 10 mg/kg: 58.1%
[7]; [11]
  inhibition in vivo at 20 mg/kg: 77.1%
[7]; mouse, read-out: ED50
  ED50: 7.5 mg/kg
[8]; 1 mg/kg p.o.
  Inhibition: 37.1%
[8]; 5 mg/kg p.o.
  Inhibition: 48.5%
[8]; 25 mg/kg p.o.
  Inhibition: 72.9%
[8]; rat, read-out: ED50
  ED50: 4.4 mg/kg

## O=C(O)Cc1ccccc1Nc1c(Cl)cccc1Cl [Diclofenac sodium]
Vascular permeability [1]; 1 mg/kg p.o.
  Inhibition: 5.4%
Vascular permeability [1]; 5 mg/kg p.o.
  Inhibition: 30.2%
Vascular permeability [1]; Rattus norvegicus
  ED30: 4.8 mg/kg
[3]; 0.2 mg/kg p.o.
  Mean decrease in temp.: 0.88 °C
[3]; 1 mg/kg p.o.
  Mean decrease in temp.: 1.63 °C
[3]; 5 mg/kg p.o.
  Mean decrease in temp.: 1.57 °C
[3]; Rattus norvegicus
  ED1.0: 0.25 mg/kg
Adjuvant arthritis
  Inhibitory percent of swelling: 10.9%
[4]; 5 h
  inhibition in vivo at 1 mg/kg: 6.4%
  inhibition in vivo at 5 mg/kg: 39.8%
[5]; 5 mg/kg p.o.
  Analgesic effect: 31%
[5]; 20 mg/kg p.o.
  Analgesic effect: 71%
[5]
  ED50: 9.5 mg/kg
Vascular permeability [6]; 10 mg/kg p.o.
  Dye leakage (P.S.B.) mean ± S.E.: 227.0 ± 14.4 μg/20g
Vascular permeability [6]; 20 mg/kg p.o.
  Dye leakage (P.S.B.) mean ± S.E.: 205.3 ± 10.1 μg/20g
  Inhibition: 36.0%
Vascular permeability [6]; Mus musculus
  ED30: 14 mg/kg
Vascular permeability [6]; 5 mg/kg p.o.
  Inhibition: 5.4%
[7]; 5 mg/kg p.o.
  Frequency of writhing, mean ± S.E.: 21.4 ± 3.0
[7]; 10 mg/kg p.o.
  Frequency of writhing, mean ± S.E.: 16.2 ± 3.1
[7]; 20 mg/kg p.o.
  Frequency of writhing, mean ± S.E.: 10.9 ± 1.7
[7]; Mus musculus
  ED50: 17.7 mg/kg
  inhibition in vivo at 5 mg/kg: 9.3%
  inhibition in vivo at 20 mg/kg: 53.8%
[8]; 1 mg/kg p.o.
  Inhibition: 22.7%
[8]; 5 mg/kg p.o.
  Inhibition: 49.7%
[8]; 25 mg/kg p.o.
  Inhibition: 74.9%
[8]; Rattus norvegicus
  ED50: 5.3 mg/kg
